In article PMC5789083, “Mechanisms driving the antibacterial and antibiofilm properties of Hp1404 and its analogue peptides against multidrug-resistant Pseudomonas aeruginosa” (Scientific Reports, 2018):
≈ marks a conversion by molar mass, not a printed value. Like-named read-outs stand apart in the source and are kept apart here.

Key:
P. aeruginosa 1034 = format: in vivo; conditions: BALB/c mice, intradermal P. aeruginosa 1034
Method: BALB/c mice (6 weeks old) were used in this study. The mice were shaved and intradermally injected with 20 µl of P. aeruginosa (1 × 10^8 CFU/ml) in PBS.

[1] = tested on: P. aeruginosa strains (biofilm formation); format: cell-based, Pseudomonas aeruginosa; conditions: 24 h, 37 °C, crystal violet OD595
Method: To evaluate the ability of bacterial strains to form biofilms either in the absence or presence of peptides, antibiotic-susceptible P. aeruginosa (ATCC 27853), and various strains of MDR P. aeruginosa were cultured in nutrient broth (NB). […]. The biofilms were fixed with 100% methanol for 15 min, stained with 0.1% crystal violet (CV) for 1 h, and rinsed three times with distilled water (dH2O). After the addition of 95% ethanol, biofilm mass was quantified by measuring OD at 595 nm using a Versa-Max microplate ELISA reader (Molecular Devices). Results were expressed as the percentage of biofilm formed with respect to the control. […] All experiments were performed at least in triplicate.

[2] = tested on: Pseudomonas aeruginosa and MRPA strains; assay: microbe, parasite or virus in culture; format: cell-based; conditions: broth micro-dilution, 37 °C, 18–24 h
Description: Gram-negative (Pseudomonas aeruginosa ATCC 27853) bacterial strains were obtained from the ATCC (American Type Culture Collection; Manassas, VA, USA). Multidrug-resistant strains (Pseudomonas aeruginosa 138, 431, 434, 557, 559, 778, 1034, 1162, 3290, 3399, 3592, 3904, 4007, 4319, 4891, 5018, and 671973) were obtained from the Chonnam National University Hospital (Gwangju, South Korea).
We examined the activity of each peptide against both pseudomonas aeruginosa and multidrug-resistant strains. The minimal inhibitory concentrations (MICs) of peptides were determined using the broth micro-dilution assay as described previously. Briefly, bacterial strains were cultivated with shaking overnight at 37 °C. The next day, they were diluted to a density of 2 × 10^5 CFU/mL with growth medium. Peptides were serially diluted with 10 mM sodium phosphate buffer. 50 µL bacterial aliquots were mixed with an equal volume of peptide solution, and incubated at 37 °C for 18–24 h. Inhibition of bacterial growth was determined by measuring the absorbance at 600 nm using a Versa Max microplate reader (Molecular Devices, Sunnyvale, CA, USA). The test was performed in triplicate.

[3] = tested on: P. aeruginosa 1034 biofilm; assay: LIVE/DEAD BacLight (SYTO9/PI) staining of biofilms; format: cell-based, Pseudomonas aeruginosa; conditions: even at 400 µM; P. aeruginosa 1034, 24 h, 37 °C
Method: Visualization of the remaining bacteria in the biofilm was achieved using the LIVE/DEAD BacLight Bacterial Viability Kit (Molecular Probes, Eugene, OR, USA), and an IX71 inverted fluorescence microscope (Olympus, Tokyo, Japan) was used for observation[58],[59]. Briefly, bacterial suspensions (5 × 10^5 CFU/mL) were incubated with 0.5× MBIC or 1× MBIC of the peptides, for 24 h at 37 °C. Following incubation, biofilms were stained with pre-mixed dye (SYTO-9 and propidium iodide) for 30 min in the dark; images were obtained using the aforementioned microscope.

HaCaT cells = assay: Cytotoxicity, MTT assay; format: cell-based, human; conditions: 3.13 µM, 24 h
Method: We used the MTT assay to evaluate the toxicity of the peptides toward human skin epithelial cells (HaCaT) as previously described. Briefly, HaCaT cells were seeded at a density of 2 × 10^4 cells per well in 96-well microtiter plates in Dulbecco’s modified Eagle’s medium (DMEM) containing 10% foetal bovine serum (FBS) at 37 °C under 5% CO2 atmosphere. The next day, peptides were added to each well at various final concentrations (higher concentration of 200 µM). After 24 h incubation, culture supernatants were removed. 0.5 mg/mL MTT was added to each well, and the plates were incubated for 4 h at 37 °C. The medium was replaced by dimethyl sulfoxide (DMSO) to dissolve the formazan crystals formed in the wells. The absorbance at 570 nm was measured using a Versa-Max microplate ELISA reader (Molecular Devices). The viability rate was calculated using the following formula: Cell viability (%) = (absorbance of treated sample)/(absorbance of control) × 100.

mouse red blood cells = assay: Hemolytic activity; format: cell-based; conditions: at 12.5 M (so in the source); mouse RBCs, positive control
Method: The hemolytic activities of the peptides were determined as previously described. Fresh mouse red blood cells (RBCs) were washed and diluted to 8% with PBS. RBC suspension was added to 96-well plates (100 µL/well), mixed with an equal volume of serially diluted peptides, and incubated at 37 °C for 1 h with gentle shaking. The plate was centrifuged and the supernatant was transferred to a 96-well plate. The absorbance at 414 nm was measured with a Versa-Max ELISA reader (Molecular Devices). PBS and 0.1% Triton X-100 were used as negative and positive controls, respectively. The experiment was performed in triplicate. The hemolysis rate was calculated using the following formula[55]: % Hemolysis = [(Abs 414 nm in the peptide solution-Abs 414 nm in PBS)/(Abs 414 nm in 0.1% Triton X-100-Abs 414 nm in PBS)] × 100

O=C(O)c1cn(C2CC2)c2cc(N3CCNCC3)c(F)cc2c1=O [Ciprofloxacin, ciprofloxacin, reference compound]
killing of bacteria in infected skin (P. aeruginosa 1034; day 7): did not kill the bacteria
decrease in number of colonies (P. aeruginosa 1034; until 4 days): about 60%
MBIC ([1]; P. aeruginosa 434): >400 µM
MBIC ([1]; P. aeruginosa 559): >400 µM
MBIC ([1]; P. aeruginosa 778): >400 µM
MBIC ([1]; P. aeruginosa 1034): >400 µM
MBIC ([1]; P. aeruginosa 1162): >400 µM
MBIC ([1]; P. aeruginosa 3399): >400 µM
MBIC ([1]; P. aeruginosa 3543): >400 µM
MBIC ([1]; P. aeruginosa 4007): >400 µM
MIC ([2]; Pseudomonas aeruginosa, ATCC27853, P. aeruginosa ATCC 27853, 2 × 10^5 CFU/mL, A600, triplicate): 1.56 µM (≈ 0.517 µg/mL)
MIC ([2]; Pseudomonas aeruginosa, P. aeruginosa 138 (multidrug-resistant), triplicate): > 400 µM
MIC ([2]; Pseudomonas aeruginosa, P. aeruginosa 431 (multidrug-resistant), triplicate): > 400 µM
MIC ([2]; Pseudomonas aeruginosa, P. aeruginosa 434 (multidrug-resistant), triplicate): > 400 µM
MIC ([2]; Pseudomonas aeruginosa, P. aeruginosa 557 (multidrug-resistant), triplicate): > 400 µM
MIC ([2]; Pseudomonas aeruginosa, P. aeruginosa 559 (multidrug-resistant), triplicate): > 400 µM
MIC ([2]; Pseudomonas aeruginosa, P. aeruginosa 778 (multidrug-resistant), triplicate): > 400 µM
MIC ([2]; Pseudomonas aeruginosa, P. aeruginosa 1034 (multidrug-resistant), triplicate): > 400 µM
MIC ([2]; Pseudomonas aeruginosa, P. aeruginosa 1162 (multidrug-resistant), triplicate): > 400 µM
MIC ([2]; Pseudomonas aeruginosa, P. aeruginosa 3290 (multidrug-resistant), triplicate): > 400 µM
MIC ([2]; Pseudomonas aeruginosa, P. aeruginosa 3399 (multidrug-resistant), triplicate): > 400 µM
MIC ([2]; Pseudomonas aeruginosa, P. aeruginosa 3543 (multidrug-resistant), triplicate): 400 µM (≈ 133 µg/mL)
MIC ([2]; Pseudomonas aeruginosa, P. aeruginosa 3592 (multidrug-resistant), triplicate): > 400 µM
MIC ([2]; Pseudomonas aeruginosa, P. aeruginosa 3904 (multidrug-resistant), triplicate): 400 µM (≈ 133 µg/mL)
MIC ([2]; Pseudomonas aeruginosa, P. aeruginosa 4007 (multidrug-resistant), triplicate): > 400 µM
MIC ([2]; Pseudomonas aeruginosa, P. aeruginosa 4319 (multidrug-resistant), triplicate): > 400 µM
MIC ([2]; Pseudomonas aeruginosa, P. aeruginosa 4891 (multidrug-resistant), triplicate): > 400 µM
MIC ([2]; Pseudomonas aeruginosa, P. aeruginosa 5018 (multidrug-resistant), triplicate): > 400 µM
MIC ([2]; Pseudomonas aeruginosa, P. aeruginosa 671973 (multidrug-resistant), triplicate): 100 µM (≈ 33.1 µg/mL)
biofilm formation by the MRPA strain (live/dead staining) [3]: did not inhibit biofilm formation

CC[C@H](C)[C@H](NC(=O)CN)C(=O)NCC(=O)N[C@@H](C)C(=O)N[C@H](C(=O)N[C@@H](CC(C)C)C(=O)N[C@@H](CCCCN)C(=O)N[C@H](C(=O)N[C@@H](CC(C)C)C(=O)N[C@H](C(=O)N[C@H](C(=O)NCC(=O)N[C@@H](CC(C)C)C(=O)N1CCC[C@H]1C(=O)N[C@@H](C)C(=O)N[C@@H](CC(C)C)C(=O)N[C@H](C(=O)N[C@@H](CO)C(=O)N[C@@H](Cc1c[nH]c2ccccc12)C(=O)N[C@H](C(=O)N[C@@H](CCCCN)C(=O)N[C@@H](CCCNC(=N)N)C(=O)N[C@@H](CCCCN)C(=O)N[C@@H](CCCNC(=N)N)C(=O)N[C@@H](CCC(N)=O)C(=O)N[C@@H](CCC(N)=O)C(N)=O)[C@@H](C)CC)[C@@H](C)CC)[C@@H](C)O)[C@@H](C)O)C(C)C)C(C)C [Melittin, reference compound]
survival of HaCaT cells (HaCaT cells): no living cells were detected
hemolysis (mouse red blood cells): complete hemolysis
MIC ([2]; P. aeruginosa 138 (multidrug-resistant), triplicate): 3.13 µM (≈ 8.91 µg/mL)
MIC ([2]; P. aeruginosa 431 (multidrug-resistant), triplicate): 3.13 µM (≈ 8.91 µg/mL)
MIC ([2]; P. aeruginosa 434 (multidrug-resistant), triplicate): 3.13 µM (≈ 8.91 µg/mL)
MIC ([2]; P. aeruginosa 557 (multidrug-resistant), triplicate): 1.56 µM (≈ 4.44 µg/mL)
MIC ([2]; P. aeruginosa 559 (multidrug-resistant), triplicate): 3.13 µM (≈ 8.91 µg/mL)
MIC ([2]; P. aeruginosa 778 (multidrug-resistant), triplicate): 3.13 µM (≈ 8.91 µg/mL)
MIC ([2]; P. aeruginosa 1034 (multidrug-resistant), triplicate): 1.56 µM (≈ 4.44 µg/mL)
MIC ([2]; P. aeruginosa 1162 (multidrug-resistant), triplicate): 3.13 µM (≈ 8.91 µg/mL)
MIC ([2]; P. aeruginosa 3290 (multidrug-resistant), triplicate): 3.13 µM (≈ 8.91 µg/mL)
MIC ([2]; P. aeruginosa 3399 (multidrug-resistant), triplicate): 3.13 µM (≈ 8.91 µg/mL)
MIC ([2]; P. aeruginosa 3543 (multidrug-resistant), triplicate): 3.13 µM (≈ 8.91 µg/mL)
MIC ([2]; P. aeruginosa 3592 (multidrug-resistant), triplicate): 3.13 µM (≈ 8.91 µg/mL)
MIC ([2]; P. aeruginosa 3904 (multidrug-resistant), triplicate): 3.13 µM (≈ 8.91 µg/mL)
MIC ([2]; P. aeruginosa 4007 (multidrug-resistant), triplicate): 3.13 µM (≈ 8.91 µg/mL)
MIC ([2]; P. aeruginosa 4319 (multidrug-resistant), triplicate): 3.13 µM (≈ 8.91 µg/mL)
MIC ([2]; P. aeruginosa 4891 (multidrug-resistant), triplicate): 1.56 µM (≈ 4.44 µg/mL)
MIC ([2]; P. aeruginosa 5018 (multidrug-resistant), triplicate): 3.13 µM (≈ 8.91 µg/mL)
MIC ([2]; P. aeruginosa 671973 (multidrug-resistant), triplicate): 1.56 µM (≈ 4.44 µg/mL)
MIC ([2]; P. aeruginosa ATCC 27853, 2 × 10^5 CFU/mL, A600, triplicate): 3.13 µM (≈ 8.91 µg/mL)
